This passage reports IC50 results from patent US20260076973A1 (priority 2023, published 2026).

Structures can show the parent of a compound that is named as a salt. Where two headings read alike, the source gives them in different places. Some results are limits rather than exact numbers.

In this experiment the test system is SARS-CoV-2 (WA1). The experiment in a line: microbe, parasite or virus in culture. The experiment is classed as cell-based.
The mark [1] stands for this setting: VIRADEM compounds, SARS-CoV-2(WA1) CPE assay, Round 2, concentration range 1000-0.05 nM, Vero E6, read-out: IC50.
The mark [2] stands for this setting: Severe acute respiratory syndrome coronavirus 2, Vero C1008, VIRADEM compounds, SARS-CoV-2(WA1) CPE assay, Round 2, concentration range 1000-0.05 nM, Vero E6, read-out: IC50.
Where [3] appears, read: Severe acute respiratory syndrome coronavirus 2, Vero C1008.

In general, IC50 refers to the point on the concentration scale where inhibition reaches its midpoint. As to `COc1ccc(Nc2nc(Nc3cccc4ccccc34)nc(N3CCOCC3)n2)cc1` [VIRADEM-15262, N-(4-Methoxyphenyl)-6-morpholin-4-yl-N^1-naphthalen-[1,3,5]triazine-2,4-diamine], the half-inhibitory concentration (IC50) under setting [1] was 440 nM.
In the case of `Cc1cccc(N2C(N3CCOCC3)=NC(N)=NC2Nc2cccc(F)c2)c1` (stereo not drawn) [VIRADEM-11786, N-(3-Fluorophenyl)-6-morpholin-4-yl-N^1-m-tolyl-[1,3,5]triazine-2,4-diamine hydrochloride], the IC50 under setting [2] worked out at 380 nM.
`COC(=O)c1ccc(Nc2nc(N3CCOCC3)nc(N3CCOCC3)n2)cc1` [VIRADEM-10890, 4-(4,6-Dimorpholin-4-yl-[1,3,5]triazin-2-ylamino-benzoic acid methyl ester hydrochloride]: under setting [1], the IC50 is over 1000 nM.
`C1CCN(c2nc(N3CCOCC3)nc(N3CCOCC3)n2)CC1` [VIRADEM-10903, 2,4-Dimorpholin-4-yl-6-piperidin-1-yl-[1,3,5]triazin hydrochloride]: the IC50 under setting [2] was over 1000 nM.
On the same count and under the same terms, the value for `COc1ccc(Nc2nc(N3CCOCC3)nc(N3CCC(C)CC3)n2)cc1` [VIRADEM-15220, (4-Methoxyphenyl)-[4-(4-methylpiperidin-1-yl)-6-morpholin-4-yl-[1,3,5]triazin-2-yl]amine] was over 1000 nM; that for `CCc1cccc(Nc2nc(N3CCOCC3)nc(N3CCOCC3)n2)c1` [VIRADEM-15248, (4,6-Dimorpholin-4-yl-[1,3,5]triazin-2-yl)-(3-ethylphenyl)-amine] was over 1000 nM; that for `COc1ccc(CC(=O)N(N)c2nc(N3CCOCC3)nc(N3CCOCC3)n2)cc1` [VIRADEM-14302, (4-Methoxyphenyl)-acetic acid N1-(4,6-dimorpholin-4-yl-[1,3,5]triazin-2-yl)-hydrazide] was over 1000 nM.
Same read-out and setting: the value for `COc1cccc(Nc2nc(N3CCOCC3)nc(N3CCOCC3)n2)c1` [VIRADEM-10879, (4,6-Dimorpholin-4-yl-[1,3,5]triazin-2-yl)-(3-methoxyphenyl)-amine hydrochloride] was over 1000 nM; that for `CC(=O)c1cccc(Nc2nc(Nc3cccc(C)c3)nc(N3CCOCC3)n2)c1` [VIRADEM-11778, 1-[3-(4-Morpholin-4-yl-6-m-tolylamino-[1,3,5]triazin-2-ylamino)-phenyl]-ethanone hydrochloride] was 320 nM.
The same measure, in the same setting: the value for `FC(F)(F)Oc1ccc(Nc2nc(N3CCOCC3)nc(N3CCOCC3)n2)cc1` [VIRADEM-10891, (4,6-Dimorpholin-4-yl-[1,3,5]triazin-2-yl)-(4-trifluoromethoxyphenyl)-amine hydrochloride] was over 1000 nM.
In turn, `Cc1ccc(Nc2nc(Nc3cccc(F)c3)nc(N3CCOCC3)n2)cc1Cl` [VIRADEM-12292, N-(3-Chloro-4-methylphenyl)-N^1-(3-fluorophenyl)-6-morpholin-4-yl-[1,3,5]triazine-2,4-diamine] displayed an IC50 under setting [3] of 150 nM.
The same measure, in the same setting: next, `COc1ccc(Nc2nc(Nc3cccc(C)c3)nc(N3CCOCC3)n2)cc1` [hydrochloride]: 230 nM.
For `Cc1cccc(N2C(N3CCOCC3)=NC(N)=NC2Nc2ccc(Cl)cc2)c1` (stereo not drawn) [VIRADEM-11680, N-(4-Chlorophenyl)-6-morpholin-4-yl-N^1-m-tolyl-[1,3,5]triazine-2,4-diamine hydrochloride], the IC50 under setting [2] is over 1000 nM.
Still for that read-out and setting: the value for `CCOc1ccc(NC2N=C(N)N=C(N3CCOCC3)N2c2cccc(C)c2)cc1` (stereo not drawn) [VIRADEM-11794, N-(4-Ethoxyphenyl)-6-morpholin-4-yl-N^1-m-tolyl-[1,3,5]triazine-2,4-diamine hydrochloride] was 270 nM.
For the compound `c1cc2c(cc1Nc1nc(N3CCCC3)nc(N3CCCC3)n1)OCCO2` [VIRADEM-11596, -(2,3-dihydrobenzo[1,4]dioxin-6-yl)-(4,6-dipyrrolidin-1-yl-[1,3,5]triazin-2-yl)-amine hydrochloride], the IC50 under setting [1] is over 1000 nM.
